Like-named read-outs stand apart in the source and are kept apart here.
What was measured:
JeKo1 = experiment: In vitro cytotoxicity analysis, JeKo1; assay type: cell-based; details: Homo sapiens, JeKo-1
Excerpt: (§1) The A549 lung cancer, WiDr colorectal cancer, MCF-7 breast cancer, PC-3 prostate cancer, and OVCAR-3 ovarian cancer cell lines were purchased from the American Type Culture Collection (ATCC, Manassas, Va.) and were maintained in growth media as recommended by the ATCC. The JeKo-1 and JVM-2 mantle cell lymphoma cell lines were purchased from the DSMZ (Brunswick, Germany) and were maintained in growth media as recommended by the vendor. The pediatric rhabdomyosarcoma Rh18 cell line was provided y Dr. P. Houghton (Ohio State University—Nationwide Children's Hospital, Columbus, Ohio) and were maintained in growth media as recommended by Dr. Houghton. All cell culture media were supplemented with L-glutamine and penicillin/streptomycin. All cells were grown under standard culture conditions in CO2 incubators, at 37° C., with 5% CO2, and 100% relative humidity.
(§2) Cell viabilities were determined by measuring the cleavage of (sodium 3′-[1-(phenylaminocarbonyl)-3,4-tetrazolium]-bis(4-methoxy-6-nitro)benzene sulfonic acid hydrate) (XTT) to a water-soluble orange formazan by mitochondrial dehydrogenase, following the manufacturer's instructions (Roche Applied Science, Indianapolis, Ind.). Briefly, cell lines were seeded at various cell densities depending on the cell type. The adherent cell lines were allowed to adhere overnight before compound addition, whereas the suspension cell lines were seeded the day of compound addition. Stock concentrations of the compounds were made in DMSO, diluted in culture media and subsequently added to the plates at various final concentrations, then incubated for 72 hours. After the incubation period, the XTT labeling reagent, containing the electron-coupling reagent, was added to each well and incubated for 4 hours. The absorbance of each well was then read at 490 nm with a reference wavelength of 690 nm using a VersaMax™ microplate reader (Sunnyvale, Calif.). Data are expressed as the percentage of growth compared to vehicle-treated cells, as calculated from absorbance and corrected for background absorbance.
(§3) Alternatively, cell lines were seeded in 100 μL cell culture medium in 96-well plates. Depending on the cell proliferation rate, cells were seeded at 4,000 to 6,000 cells/well. Suspension cell cultures were initiated with 20,000 cells/well. The cells were incubated overnight at 37° C., and then the drug treatments were started by adding 50 μL medium containing the corresponding drug dilution and DMSO. The final concentration of DMSO onto the cells was 0.5% v/v in all wells. The cells viability was determined using the CellTiter-Glo Luminescent Cell Viability Assay (Promega, Madison, Wis.). The CellTiter-Glo reagent was prepared according to the manufacturer's instructions, and then 50 μL reagent was added to each well for 1 h at rt. The luminescence was measured on an Envision Multilabel Plate Reader (PerkinElmer, Waltham, Mass.). The IC50 values were calculated from the dose-response curve analysis with GraphPad Prism 6.01 (GraphPad Software, La Jolla, Calif.) using the nonlinear regression model 4 Parameter Logistic. Nine concentrations were generated by 1:2 serial dilutions for each IC50 assay. Each drug concentration was evaluated in triplicate or quadruplicate.

PC3 = experiment: In vitro cytotoxicity analysis, PC3; assay type: cell-based; details: Homo sapiens
Excerpt: as §1, §2, §3

SK-MEL-2 = experiment: Drug combination assay, SK-MEL-2; assay type: cell-based; details: for Interaction Type: listed drug combined with compound 19, Ineffective = drug IC50 much higher than 1 μM
Description: (§4) Preliminary cytotoxic screenings for each drug used in drug combination assays were performed to determine their cytotoxic dose range. […] Eight concentrations were established by 1:3 serial dilutions of the single drugs and their combinations with the splicing modulators. All drug concentrations were evaluated in triplicate in 96-well cell culture plates. Assays of individual drugs and drug combinations were run on the same tissue culture plate. Cell viability was determined using the CellTiter-Glo reagent.
(§5) Luminescence data obtained from the cell viability determinations were formatted per the requirements of the analytical software (viability data range: >0 and <1). The formatted data were analyzed with the software CalcuSyn 2.1 (Biosoft, Cambridge, UK), which provides quantitative CI values for the drug interaction analyses (see ranges in Supplementary Table S2).

HeLa = experiment: Drug combination assay, HeLa; assay type: cell-based
Description: as §4, with “reagent. Drug interactions, in terms of synergism, additive effect, or antagonism, were based on the drugs' Combination Index (CI) (Chou et al., Adv. Enzyme Regul. 1984, 22, 27).” for “reagent.”
as §5, with “S2). […] Therefore, in these two cases the drug interaction was evaluated by comparing the IC50 value of Sudemycin with that of the IC50 values resulting from the serial dilutions of the splicing modulator combined with a constant dose of the non-toxic drug.” for “S2).”

PC-3 = experiment: Drug combination assay, PC-3; assay type: cell-based; details: inhibitor + compound 19
Description: as §4, with “reagent. Drug interactions, in terms of synergism, additive effect, or antagonism, were based on the drugs' Combination Index (CI) (Chou et al., Adv. Enzyme Regul. 1984, 22, 27).” for “reagent.”
as §5, with “S2). […] Therefore, in these two cases the drug interaction was evaluated by comparing the IC50 value of Sudemycin with that of the IC50 values resulting from the serial dilutions of the splicing modulator combined with a constant dose of the non-toxic drug.” for “S2).”

Sk-N-AS = experiment: Drug combination assay, Sk-N-AS neuroblastoma; assay type: cell-based; details: Sk-N-AS; inhibitor + compound 19
Description: as §4, §5

WiDr = experiment: Drug combination assay, WiDr; assay type: cell-based; details: inhibitor + compound 19
Description: as §4, with “reagent. Drug interactions, in terms of synergism, additive effect, or antagonism, were based on the drugs' Combination Index (CI) (Chou et al., Adv. Enzyme Regul. 1984, 22, 27).” for “reagent.”
as §5, with “S2). […] Therefore, in these two cases the drug interaction was evaluated by comparing the IC50 value of Sudemycin with that of the IC50 values resulting from the serial dilutions of the splicing modulator combined with a constant dose of the non-toxic drug.” for “S2).”

cell lines investigated = experiment: Drug combination assays, cell line not stated; assay type: cell-based
Description: as §4, §5

[1] = test system: MDM2 alternative splicing in Rh18 cells; experiment: In vitro alternative splicing assay (MDM2, RT-PCR); assay type: cell-based; details: Rh18 cells, 8 h exposure; Table II
Description: Briefly, following an 8 h exposure of exponentially growing cells to drug, total RNA was isolated using TRIzol reagent (Invitrogen, Carlsbad, Calif.). Total RNA (1 μg) was used to convert the mRNA to cDNA by using random primers, Oligo(dT)16 and Omniscript Reverse Transcription Kit (Qiagen, Germantown, Md.). PCR analyses were performed using specific oligonucleotides (see Table I) and standard amplification protocols. PCR products were separated by agarose gel electrophoresis, visualized by ethidium bromide staining on an UV transilluminator, and recorded. PCR band sizes were calculated by comparing them to the standard EZ Load 100-bp PCR Molecular Ruler (BioRad Laboratories, Hercules, Calif.).

[2] = Mouse plasma stability (HPLC); assay type: in vitro ADME; details: mouse plasma at 37° C.
[3] = Solubility in phosphate buffered saline (HPLC); assay type: physicochemical; details: for solubility: aqueous buffer, read-out: Buffer Soluble
[4] = test system: cytotoxicity or splicing modulation; experiment: Rapid onset of cytotoxicity or splicing modulation; assay type: cell-based; details: maximum cytotoxicity or splicing modulation within 5 hours of drug treatment
Description: The cell were seeded in of 100 μl of medium into 96-well plates (HeLa at 4×10^4 cell/well; SK_MEL_2 at 6×10^4 cell/well), they were allowed to attach overnight, and then treatments started by adding 50 μl of medium containing Sudemycin D6 to produce a final concentration of 1 μM and DMSO to 0.5% v/v final into the experimental well. Continuous drug treatments were run in the same plate, using concentrations of 0, 62.5, 125, 250, 500 & 1000 nM final. DMSO was added into all wells, including non-treated wells to 0.5% v/v final concentration. For wells where the drug was withdrawn, the medium was carefully aspirated after 1, 2, 3 and 4 hours after the addition of the drug, the cells were washed once with PBS and then 150 μl of fresh cell culture medium containing 0.5% v/v DMSO was added into all washed out wells. After 72 hours of the addition of drug, the cell viability was determined using CellTiter-Glo luminescent cell viability assay (Promega, Madison, Wis.), and Sudemycin D6 cytotoxicity was calculated as the percentage of cell proliferation inhibition against the control treatment DMSO.

[5] = PC-3, Table III, read-out: PC3 IC50

Compound	IC50 (JeKo1; Table III) [nM]	MDM2 Splicing Effects [1]	IC50 (JeKo1; Table II) [nM]	Plasma Stability [2]	Rapid Onset [4]	further results
CCCCNC(=O)O[C@@H](C)/C=C\C(=O)N[C@H]1CO[C@@H](C/C=C(C)/C=C/[C@@H]2C[C@]3(CO3)CC(C)(C)O2)OC1	> 1000	–	–	–	–	IC50 (PC3; [5]): > 10000 nM
C=CCN(/C=C1/C(=O)O[C@H](COC)[C@@]2(C)C1=C(O)C(=O)C1=C2[C@H](OC(C)=O)C[C@]2(C)C(=O)CC[C@@H]12)CC=C [PX-866]	–	–	–	–	–	CI in SK-MEL-2 with compound 19 (SK-MEL-2; Combination Index at ED50, CalcuSyn 2.1, listed drug + compound 19): 0.57; CI of 19 + inhibitor (SK-MEL-2; SK-MEL-2, inhibitor + compound 19): 0.57; Interaction Type (SK-MEL-2): Synergism (0.3-0.7); CI of 19 + inhibitor (HeLa; HeLa, inhibitor + compound 19): 0.49; CI of 19 + inhibitor (PC-3): 0.67; CI of 19 + inhibitor (Sk-N-AS): 0.65; CI of 19 + inhibitor (WiDr): 0.33; drug interaction with compound 20 (cell lines investigated): demonstrated synergy
COCCNC(=O)O[C@@H](C)/C=C\C(=O)N[C@H]1CO[C@@H](C/C=C(C)/C=C/[C@@H]2C[C@]3(CO3)CC(C)(C)O2)OC1	> 1000	–	–	–	–	IC50 (PC3; [5]): > 10000 nM
CCN(CC)C(=O)O[C@@H](C)/C=C\C(=O)N[C@H]1CO[C@@H](C/C=C(C)/C=C/[C@@H]2C[C@]3(CO3)CC(C)(C)O2)OC1	> 1000	–	–	–	–	IC50 (PC3; PC-3, read-out: PC3 IC50): > 10000 nM
CC(/C=C/[C@@H]1C[C@]2(CO2)CC(C)(C)O1)=C\C[C@H]1OC[C@@H](NC(=O)/C=C\[C@H](C)OC(N)=O)CO1	1900	–	–	–	–	IC50 (PC3; [5]): > 10000 nM
O=C(O)CCCCCCCCCCCNC(=O)NC12CC3CC(CC(C3)C1)C2 [AUDA]	–	–	–	–	–	Interaction Type (SK-MEL-2): Synergism (0.3-0.7); cytotoxicity alone (HeLa; HeLa cells, 15 μM): not cytotoxic; drug interaction with compound 19 (panel of 23 drugs) (cell lines investigated): synergy; cytotoxic effect of drug alone (cell lines investigated; single drug in combination assays): Neither AUDA nor NCND alone produced a cytotoxic effect
CC(=O)O[C@@H](C)/C=C\C(=O)N[C@H]1CC[C@@H](C/C=C(C)/C=C/[C@@H]2C[C@]3(CO3)CC(C)(C)O2)CC1	–	Yes	100	No	Yes (“Yes” indicates maximum cytotoxicity or splicing modulation is seen within 5 hours of drug treatment.)	Buffer Soluble [3]: No
CNC(=O)O[C@@H](C)/C=C\C(=O)N[C@H]1CC[C@@H](C/C=C(C)/C=C/[C@@H]2C[C@]3(CO3)CC(C)(C)O2)CC1 [drawing 208]	–	Yes	22	Yes (“Yes” indicates mouse plasma stability is >5 hours in mouse plasma at 37 °C as determined by HPLC.)	Yes (“Yes” indicates maximum cytotoxicity or splicing modulation is seen within 5 hours of drug treatment.)	solubility [3]: > 10 µM
CC(/C=C/C1C[C@]2(CO2)CC(C)(C)O1)=C\C[C@H]1OC[C@@H](NC(=O)/C=C\[C@H](C)OC(=O)N(C)C)CO1 (stereo partly drawn)	–	Yes	300	Yes (“Yes” indicates mouse plasma stability is >5 hours in mouse plasma at 37 °C as determined by HPLC.)	No	solubility [3]: > 10 µM
CC(/C=C/[C@@H]1C[C@]2(CO2)CC(C)(C)O1)=C\C[C@H]1OC[C@@H](NC(=O)/C=C\[C@H](C)OC(=O)C(C)C)CO1	–	Yes	220	No	No	solubility [3]: > 10 µM
CNC(=O)O[C@@H](C)/C=C\C(=O)N[C@H]1CO[C@@H](C/C=C(C)/C=C/[C@@H]2C[C@]3(CO3)CC(C)(C)O2)OC1	900	–	–	–	–	IC50 (PC3; PC-3, read-out: PC3 IC50): > 10000 nM

From US9682993B2, “Anticancer compounds” (ST. JUDE CHILDREN'S RESEARCH HOSPITAL, priority 2012, dated 2017)
